Results on 80 compounds are retold here after the METLIN SMRT retention time set (Domingo-Almenara et al. 2019).

The structures appear in SMILES notation.

The data set in a line: gradient 5% acetonitrile 3 min, to 50% in 2 min, to 85% in 15 min, held 3 min, 100 µL/min. The following applies: column: Zorbax Extend-C18 2.1 x 50 mm; eluents: water / acetonitrile, 0.1% formic acid. Summed up:
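The mobile phases were water and acetonitrile, each with 0.1% formic acid, pumped at 100 μL/min through a Zorbax Extend-C18 column (2.1 × 50 mm, 1.8 μm). Pure standards were injected as mixtures of ~100 molecules and detected by a quadrupole time-of-flight mass spectrometer in positive and negative ionization mode. Retention time came from computationally picked adduct peaks, each inspected by hand.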
On to `O=C(c1ccc(Cn2c(=O)c3cccn3c3cccnc32)cc1)N1CCN(c2ccccn2)CC1`, for which the RP-LC retention time was found to be 645 s.

`CC(C)NC(=O)N1CCCC(c2cccc(C(=O)NCCC3=CCCCC3)c2)C1` (stereo not given) showed an RP-LC retention time of 977 s.

In the case of `COCCn1cc(CCNC(=O)Nc2cccc(C)c2C)c2cccnc21`, the RP-LC retention time was determined as 721 s.

`CCc1csc(-c2cn(CC(=O)Nc3ccc(OC)c(Cl)c3)cn2)n1`: the RP-LC retention time amounted to 727 s.

Compound `CN(C)C[C@@H]1CN(C2CCOCC2)C[C@H]1NS(=O)(=O)Cc1cccc(F)c1` showed an RP-LC retention time of 553 s.

Turning to `Cc1ccc(-n2c(N3CCCC(C(=O)Nc4ccc(C)c(Cl)c4)C3)nc3ccsc3c2=O)cc1` (stereo not given), the RP-LC retention time is 1160 s.

In the case of `CC(=O)Nc1ccc(SCC(=O)Nc2ccc(OC(F)(F)F)cc2)nn1`, the RP-LC retention time was 745 s.

As for `Cc1ccccc1Nc1c(-c2cccc(Br)c2)nc2ccccn12`, the RP-LC retention time came to 799 s.

Consider `Cc1noc(C2(NC(=O)c3cccc(F)c3)CCCCC2)n1`, for which the RP-LC retention time worked out at 860 s.

`O=S(=O)(c1cccc2c(I)cccc12)N1CCCNCC1` came in with an RP-LC retention time of 673 s.

`CC(C)(C)OC(=O)Nc1cnc(C(=O)O)cn1` gave an RP-LC retention time of 625 s.

In turn, `Cn1nc(CN(C(=O)c2ccccc2F)c2ccccc2)c2c1CCN(S(C)(=O)=O)C2` returned an RP-LC retention time of 779 s.

In the case of `COCC1CN(S(=O)(=O)c2cccc(C#N)c2)CCC1(F)F` (stereo not given), the RP-LC retention time is 892 s.

For the compound `O=C(Cn1nc2n(c(=O)c1=O)CCN2c1ccccc1)Nc1ccc(OC(F)(F)F)cc1`, the RP-LC retention time was 808 s.

In turn, `O=C(NCc1ccccc1Cl)c1csc(C(=O)NC2CCCC2)n1` returned an RP-LC retention time of 931 s.

The compound `CC1CN=C2C=C(N3CCN(C(=O)Nc4ccc(Cl)cc4F)CC3)N=CN21` (stereo not given) displayed an RP-LC retention time of 630 s.

`O=S(=O)(c1ccc2nncn2c1)N(Cc1cc(F)cc(F)c1)c1ccccc1`: the RP-LC retention time came out at 861 s.

With `COc1ccc(OC)c(NC(=O)N2CCC3(CC2)NC(=O)c2ccccc2O3)c1`, the RP-LC retention time was 740 s.

`O=C(NC1CCN(C(=O)c2cc(-c3cccs3)[nH]n2)CC1)c1ccc(Cl)cc1` came in with an RP-LC retention time of 778 s.

`CC1CCN(S(=O)(=O)c2cccn(CC(=O)NCCC3=CCCCC3)c2=O)CC1` came in with an RP-LC retention time of 878 s.

Take `N#Cc1ccc(C(=O)Nc2cccc(-c3nnc4n3CCCC4)c2)cc1`: the RP-LC retention time came out at 665 s.

As for `Cc1cc2n(n1)CCC(=O)N2CCCC(=O)NCCCN1CCCC(C)C1` (stereo not given), the RP-LC retention time is 570 s.

In the case of `Cc1cc(C)c2nc(-c3ccc4ccccc4c3)cc(C(=O)O)c2c1`, the RP-LC retention time was 1310 s.

`COc1ccc(/C=C/c2nn3c(COc4ccc(OC)cc4)nnc3s2)cc1` gave an RP-LC retention time of 973 s.

Regarding `O=C(NCc1ccc2c(c1)OCO2)c1nn(-c2ccccc2)c2ccccc2c1=O`, the RP-LC retention time came to 831 s.

Compound `Cc1noc([C@@H]2CN(C(=O)c3occc3C)C[C@H]2CO)n1` returned an RP-LC retention time of 642 s.

`COc1cccc(-c2noc(C3CCCN3C(=O)C3CCC3)n2)c1` (stereo not given): the RP-LC retention time is 912 s.

The compound `Cc1nnc2c(=O)n(CC(=O)N3CCCC(C)C3)c3cccnc3n12` (stereo not given) returned an RP-LC retention time of 668 s.

In the case of `CNC(=O)c1nn(-c2ccc(OC)c(OC)c2)c(OC)cc1=O`, the RP-LC retention time was determined as 590 s.

Take `CCOC(=O)C1=C(C)NC(=O)NC1c1cn(-c2ccccc2)nc1-c1ccc(OCC)cc1` (stereo not given): the RP-LC retention time stood at 946 s.

`CCc1ccc(CNC(=O)c2cc3n(n2)CC(C)(C(=O)NCc2ccc(F)cc2)N(C)C3=O)cc1` (stereo not given) registered an RP-LC retention time of 858 s.

Compound `COC(=O)c1ncn2c1C(=O)N(C1CC1)C(C)(C(=O)NCc1cccc(C)c1)C2` (stereo not given) came in with an RP-LC retention time of 658 s.

On to `O=c1c(S(=O)(=O)N2CCCCCC2)cccn1Cc1ccc(F)cc1`, for which the RP-LC retention time came to 933 s.

`Cc1ccc(C(=O)N2CCc3nc(-c4ccc(Cl)cc4)ncc3C2)cc1F` had an RP-LC retention time of 1150 s.

In the case of `O=C(Cn1cnc2c(nc3n2CCCCC3)c1=O)N1CCC(Cc2ccccc2)CC1`, the RP-LC retention time was determined as 764 s.

Consider `CCN1C(=O)COc2ccc(-c3nc(NC(=O)c4cccnc4)sc3C)cc21`, for which the RP-LC retention time was determined as 784 s.

Regarding `C=CCN1C(=O)COc2ccc(-c3nc(NC(=O)c4cccs4)sc3C)cc21`, the RP-LC retention time was found to be 998 s.

As for `O=C(Nc1cnc(-c2ccccc2)nc1)c1ccc(F)c(F)c1`, the RP-LC retention time was found to be 1030 s.

Regarding `CCC1Oc2ccc(S(=O)(=O)N3CCC(C(=O)Nc4ccc(C)c(F)c4)CC3)cc2NC1=O` (stereo not given), the RP-LC retention time worked out at 892 s.

For `CCOC(=O)c1c(S(=O)(=O)N2CCC(C(=O)Nc3cccc(OC)c3)CC2)c(C)n(CC)c1C`, the RP-LC retention time came out at 891 s.

As to `CCOC(=O)C1=C(C)NC(=O)NC1c1ccc(-c2cccc([N+](=O)[O-])c2)o1` (stereo not given), the RP-LC retention time turned out to be 761 s.

The compound `O=C(c1ccc(Cl)cc1)N1CCCCC1CCN1CCOCC1` (stereo not given) had an RP-LC retention time of 637 s.

As to `CC(C)(C)NC(=O)C1CCN(S(C)(=O)=O)c2cc(Cl)ccc2O1` (stereo not given), the RP-LC retention time is 898 s.

In turn, `COC(=O)c1ccccc1NC(=O)CCCn1cnc(-c2ccccc2)cc1=O` had an RP-LC retention time of 811 s.

For the compound `Cc1c(S(=O)(=O)NCc2ccc3c(c2)CCN3C(=O)C(C)C)cnn1C(F)F`, the RP-LC retention time came to 801 s.

Take `CCc1nncn1C1CCN(C(=O)c2cc(F)ccc2F)CC1`: the RP-LC retention time was 604 s.

In turn, `Cc1cc(=O)c2cc(C(=O)c3ccccc3)ccc2[nH]1` returned an RP-LC retention time of 718 s.

Regarding `COc1ccc(CNC(=O)N(Cc2ccsc2)CC(F)(F)F)cc1OC`, the RP-LC retention time came out at 812 s.

`O=C(NC1CC1)C1CCc2sc(C(=O)N3CCCC3)cc2C1` (stereo not given) registered an RP-LC retention time of 654 s.

Take `O=C(Nc1cccc(C(F)(F)F)c1)Nc1nc(-c2ccccc2)cs1`: the RP-LC retention time worked out at 1140 s.

For `COc1ccc(F)cc1S(=O)(=O)N1CCC(F)(c2nc(CC(C)C)no2)CC1`, the RP-LC retention time amounted to 1120 s.

Take `COc1ccc2[nH]cc(CCNC(=O)CCC(=O)N3Cc4cccn4-c4ccccc43)c2c1`: the RP-LC retention time is 850 s.

`CN(Cc1ccccc1)C(=O)C1CCCN(c2ncnc3c2nc2n3CCCCC2)C1` (stereo not given) displayed an RP-LC retention time of 758 s.

For the compound `CN1CCN(CCc2ccc(Cl)c(Cl)c2)CC1`, the RP-LC retention time was 668 s.

Regarding `CCN1C(=O)NC(c2ccc(Cl)cc2)C2=C1CN(CCC(=O)NCCOC)C2=O` (stereo not given), the RP-LC retention time amounted to 599 s.

For `Cc1[nH]c(C(=O)N2CCC(CC(=O)NCCC3=CCCCC3)CC2)c(C)c1C`, the RP-LC retention time was found to be 910 s.

`COCC(C)(O)CNC(=O)c1ccsc1` (stereo not given): the RP-LC retention time worked out at 581 s.

`O=C(NC1CCCC1)c1cccnc1N1CCCCC1` came in with an RP-LC retention time of 684 s.

`COc1cc([C@@H]2c3cc4c(cc3[C@H](O)[C@@H](CO)[C@@H]2C(=O)N2CCCC2)OCO4)cc(OC)c1OC`: the RP-LC retention time came out at 641 s.

For `COCC(=O)N1CC2CN(S(=O)(=O)c3ccc(OC)cc3)CC(C1)O2`, the RP-LC retention time amounted to 934 s.

The compound `CCc1cccc(NS(=O)(=O)c2c[nH]c3ncccc23)c1` registered an RP-LC retention time of 762 s.

`CCc1ccc(-c2ccc(=O)n(Cc3nc(-c4cccs4)no3)n2)cc1` returned an RP-LC retention time of 1060 s.

In turn, `Cc1nn(CC(=O)NC(C)(C)C)c(=O)c2c(C)n(-c3ccccc3)nc12` yielded an RP-LC retention time of 768 s.

`Cn1c(N)c(S(=O)(=O)N2CCN(c3ccccc3F)CC2)c(=O)n(C)c1=O` came in with an RP-LC retention time of 701 s.

In turn, `Cn1nccc1C(=O)N1CCN(C(=O)c2cc(-c3ccncc3)n[nH]2)CC1` showed an RP-LC retention time of 523 s.

Compound `Cc1ccccc1CNC(=O)C1(c2ccc(NS(C)(=O)=O)cc2)CCCCC1` yielded an RP-LC retention time of 917 s.

The compound `O=C(N1CCN(S(=O)(=O)c2cccnc2)CC1)N1C[C@H]2C[C@H](C1)[C@H]1CCCC(=O)N1C2` registered an RP-LC retention time of 629 s.

For `Cc1nnc(-c2cc(C)n(CC(=O)Nc3ccc(F)cc3)c2C)o1`, the RP-LC retention time was 754 s.

For `CC(=O)N1c2nc(-c3ccccc3)nn2C2(CCCCC2)[C@@H]2CCCC[C@@H]21`, the RP-LC retention time was 1390 s.

The compound `COc1ccc(Cl)cc1N(C)C(=O)C1CCCN(c2ncnc3c2nc2n3CCCCC2)C1` (stereo not given) came in with an RP-LC retention time of 871 s.

`O=C(Nc1ccccc1)C1(CCO)CC12CCOCC2` (stereo not given) came in with an RP-LC retention time of 639 s.

`CCCN(CC1CCOC1)S(=O)(=O)c1cc(F)ccc1OC` (stereo not given) gave an RP-LC retention time of 868 s.

`Cc1cc(C)cc(C(=O)NCc2[nH]nc3ccccc23)c1` gave an RP-LC retention time of 814 s.

In turn, `Cc1noc(C)c1CN1CCN(C(=O)c2ccc3ccccc3n2)CC1` displayed an RP-LC retention time of 588 s.

As for `CC1CCN(C(=O)Cc2nnc3cc(-c4nc(C5CC5)no4)ccn23)CC1`, the RP-LC retention time turned out to be 759 s.

The compound `Cc1ccc(-c2noc(-c3cccc(S(=O)(=O)Nc4ccc5c(c4)OCCO5)c3)n2)cc1` yielded an RP-LC retention time of 1140 s.

`O=C(Nc1ccc(Cl)cc1F)N1CCC(n2c(-c3ccco3)nc3cccnc32)C1` (stereo not given) displayed an RP-LC retention time of 827 s.

For the compound `Cc1cc(-n2nnc(C(=O)O)c2-c2ccccn2)ccc1F`, the RP-LC retention time is 642 s.

`Cc1cc(F)ccc1NS(=O)(=O)c1c(C)sc(C)c1-c1cc(C(F)(F)F)on1` came in with an RP-LC retention time of 1200 s.

Turning to `CCOC(=O)c1c(S(=O)(=O)N2CCC(C(=O)Nc3ccc(F)cc3)CC2)c(C)n(CC)c1C`, the RP-LC retention time was found to be 897 s.
